ChEMBL document CHEMBL4251708, “Synthesis and Biological Screening of Pyrano[3,2-c]quinoline Analogues as Anti-inflammatory and Anticancer Agents” (ACS Med Chem Lett, 2018)
Calls of active or inactive are those of the source. The rule behind the calls is not given here.

Key:
[1] = tested on: THP-1 (Homo sapiens); test: Antiinflammatory activity in human THP1 cells assessed as inhibition of IL-6 production at 10 uM relative to control; design: scale not given: the % may be the effect or the level left
[2] = tested on: THP-1; test: Antiinflammatory activity in PMA-differentiated human THP1 cells assessed as inhibition of LPS-induced IL-6 production at 10 uM after 24 hrs by ELISA relative to control; assay type: functional; details: THP-1, 24 h
[3] = tested on: THP-1; test: Antiinflammatory activity in PMA-differentiated human THP1 cells assessed as inhibition of LPS-induced TNF-alpha production at 10 uM after 24 hrs by ELISA relative to control; assay type: functional; details: THP-1, 24 h
[4] = tested on: MDA-MB-231 (Homo sapiens); test: Antiproliferative activity against human MDA-MB-231 cells at 10 uM relative to control
[5] = tested on: THP-1; test: Antiinflammatory activity in PMA-differentiated human THP1 cells assessed as inhibition of LPS-induced IL-6 production at 1 uM after 24 hrs by ELISA relative to control; assay type: functional; details: THP-1, 24 h
[6] = tested on: THP-1 (Homo sapiens); test: Antiinflammatory activity in human THP1 cells assessed as inhibition of TNF-alpha production at 10 uM relative to control; design: scale not given: the % may be the effect or the level left
[7] = tested on: MIA PaCa-2; test: Antiproliferative activity against human MIAPaCa2 cells at 10 uM relative to control; assay type: functional
[8] = tested on: ACHN (Homo sapiens); test: Antiproliferative activity against human ACHN cells at 1 uM relative to control
[9] = tested on: THP-1; test: Antiinflammatory activity in PMA-differentiated human THP1 cells assessed as inhibition of LPS-induced TNF-alpha production at 1 uM after 24 hrs by ELISA relative to control; assay type: functional; details: THP-1, 24 h
[10] = tested on: MIA PaCa-2 (Homo sapiens); test: Antiproliferative activity against human MIA PaCa-2 cells at 1 uM relative to control
[11] = tested on: MDA-MB-231 (Homo sapiens); test: Antiproliferative activity against human MDA-MB-231 cells at 1 uM relative to control; details: mda-mb-231, 1 µM
[12] = tested on: Calu-1; test: Antiproliferative activity against human Calu1 cells after 48 hrs by propidium iodide staining based fluorometry; assay type: functional, cell-based; details: Calu-1, 48 h
[13] = tested on: PBMC; test: Antiinflammatory activity in human PBMC assessed as inhibition of LPS-induced TNF-alpha production incubated for 30 mins followed by LPS addition measured after 4.5 hrs by ELISA; assay type: functional, cell-based
[14] = tested on: A-549 (Homo sapiens); test: Antiproliferative activity against human A-549 cells at 10 uM relative to control
[15] = tested on: THP-1; test: Antiinflammatory activity in PMA-differentiated human THP1 cells assessed as inhibition of LPS-induced IL-6 production after 24 hrs by ELISA; assay type: functional, cell-based; details: THP-1, 24 h
[16] = tested on: HCT-116; test: Antiproliferative activity against human HCT116 cells after 48 hrs by propidium iodide staining based fluorometry; assay type: functional, cell-based; details: HCT-116, 48 h
[17] = tested on: THP-1; test: Cytotoxicity against PMA-differentiated human THP1 cells assessed as reduction in cell viability after 4.5 hrs by MTS assay; assay type: cell-based; details: THP-1, 4.5 h
[18] = tested on: ACHN; test: Antiproliferative activity against human ACHN cells after 48 hrs by propidium iodide staining based fluorometry; assay type: functional, cell-based
[19] = tested on: THP-1; test: Antiinflammatory activity in PMA-differentiated human THP1 cells assessed as inhibition of LPS-induced TNF-alpha production after 24 hrs by ELISA; assay type: functional, cell-based; details: THP-1, 24 h
[20] = tested on: NCI-H460; test: Antiproliferative activity against human H460 cells after 48 hrs by propidium iodide staining based fluorometry; assay type: functional, cell-based; details: NCI-H460, 48 h
[21] = tested on: PANC-1; test: Antiproliferative activity against human PANC1 cells after 48 hrs by propidium iodide staining based fluorometry; assay type: functional, cell-based; details: PANC-1, 48 h
[22] = tested on: ACHN (Homo sapiens); test: Antiproliferative activity against human ACHN cells at 10 uM relative to control

Row | SMILES | Activity [1] [%] | inhibition at 10 µM [2] [%] | inhibition at 10 µM [3] [%] | Activity [4] [%] | inhibition at 1 µM [5] [%] | Activity [6] [%] | Activity [7] [%] | Activity [8] [%] | inhibition at 1 µM [9] [%] | Activity [10] [%] | Activity [11] [%] | other results
1 | CSc1ccc(C2C(C#N)=C(N)Oc3c2c(=O)n(C)c2ccccc32)cc1 (stereo unspecified) | 37 | 0 | 0 | 10 | 0 | 28 | 17 | 0 | 0 | 16 | 0 | –
2 | COc1ccccc1C1C(C#N)=C(N)Oc2c1c(=O)n(C)c1ccccc21 (stereo unspecified) | 32 | 14 | 0 | 18 | 0 | 0 | 21 | 37 | 0 | 24 | 22 | –
3 | Cn1c(=O)c2c(c3ccccc31)OC(N)=C(C#N)C2c1ccccc1Cl (stereo unspecified) | 0 | 0 | 0 | – | 0 | 12 | 69 | 48 | 0 | 26 | 0 | –
4 | CN(C)c1ccc(C2C(C#N)=C(N)Oc3c2c(=O)n(C)c2ccccc32)cc1 (stereo unspecified) | 0 | 10 | 0 | 22 | 0 | 0 | 31 | 41 | 0 | 34 | 20 | –
5 | Cn1c(=O)c2c(c3ccccc31)OC(N)=C(C#N)C2c1cccc(Oc2ccccc2)c1 (stereo unspecified) | 52 | 70 | 0 | 51 | 0 | 34 | 72 | 69 | 18 | 66 | 47 | IC50 [12]: 1.8 µM; IC50 [13]: 0.2 µM; inhibition [13]: Dose-dependent effect; Activity [14]: 67%; IC50 [15]: 0.2 µM; IC50 [16]: 5.1 µM; IC50 [17]: 11 µM; IC50 [18]: 3.4 µM; IC50 [19]: 0.2 µM; IC50 [20]: 1.4 µM; IC50 [21]: 4.7 µM
6 | Cn1c(=O)c2c(c3ccccc31)OC(N)=C(C#N)C2c1c2ccccc2cc2ccccc12 (stereo unspecified) | 0 | 10 | 0 | 69 | 0 | 0 | 66 | 25 | 0 | 40 | 19 | –
7 | COc1cccc(C2C(C#N)=C(N)Oc3c2c(=O)n(C)c2ccccc32)c1 (stereo unspecified) | – | 70 | 0 | 75 | 0 | 0 | 75 | 67 | 0 | 76 | 66 | Activity [22]: 73%
8 | Cn1c(=O)c2c(c3ccccc31)OC(N)=C(C#N)C2c1c[nH]c2ccccc12 (stereo unspecified) | – | 8 | 0 | 67 | 0 | 0 | 77 | 27 | 0 | 18 | 16 | IC50 [12]: > 20 µM; inhibition [13]: inactive; IC50 [15]: 1.4 µM; IC50 [16]: > 20 µM; IC50 [17]: 6.8 µM; IC50 [18]: > 20 µM; IC50 [19]: 11 µM; IC50 [20]: > 20 µM; IC50 [21]: > 20 µM
9 | CCOc1cc(C2C(C#N)=C(N)Oc3c2c(=O)n(C)c2ccccc32)ccc1O (stereo unspecified) | – | 0 | 0 | 88 | 0 | 0 | 68 | 6 | 0 | 27 | 12 | –
